# Data reported in US9624209B2, “Substituted phenylureas and phenylamides as vanilloid receptor ligands” (Gruenenthal GmbH, priority 2009, dated 2017).
# Target: T1, vanilloid receptor 1 (VR1/TRPV1 receptor) (Homo sapiens, UniProt Q8NER1)
# T1 construct: expressed in transfected cells; host or cells: CHO K1 cells (ECACC), stably transfected
# Assay: VR1/TRPV1 receptor affinity, capsaicin stimulus (human)
# Format: cell-based, human being
# Design: key to (f) Ki (human being) [nM] Cap: result in words: AG=agonist; pAG=partial agonist; NE=no effect
# Conditions: for Ki: Tables 8-12, read-out: (f) Ki (human being) [nM] Cap; for inhibition at 5 µM: Tables 8-12, read-out: (f) Ki (human being) [nM] Cap: inhibition (as a percentage)
# T1 sequence (Q8NER1 whole entry): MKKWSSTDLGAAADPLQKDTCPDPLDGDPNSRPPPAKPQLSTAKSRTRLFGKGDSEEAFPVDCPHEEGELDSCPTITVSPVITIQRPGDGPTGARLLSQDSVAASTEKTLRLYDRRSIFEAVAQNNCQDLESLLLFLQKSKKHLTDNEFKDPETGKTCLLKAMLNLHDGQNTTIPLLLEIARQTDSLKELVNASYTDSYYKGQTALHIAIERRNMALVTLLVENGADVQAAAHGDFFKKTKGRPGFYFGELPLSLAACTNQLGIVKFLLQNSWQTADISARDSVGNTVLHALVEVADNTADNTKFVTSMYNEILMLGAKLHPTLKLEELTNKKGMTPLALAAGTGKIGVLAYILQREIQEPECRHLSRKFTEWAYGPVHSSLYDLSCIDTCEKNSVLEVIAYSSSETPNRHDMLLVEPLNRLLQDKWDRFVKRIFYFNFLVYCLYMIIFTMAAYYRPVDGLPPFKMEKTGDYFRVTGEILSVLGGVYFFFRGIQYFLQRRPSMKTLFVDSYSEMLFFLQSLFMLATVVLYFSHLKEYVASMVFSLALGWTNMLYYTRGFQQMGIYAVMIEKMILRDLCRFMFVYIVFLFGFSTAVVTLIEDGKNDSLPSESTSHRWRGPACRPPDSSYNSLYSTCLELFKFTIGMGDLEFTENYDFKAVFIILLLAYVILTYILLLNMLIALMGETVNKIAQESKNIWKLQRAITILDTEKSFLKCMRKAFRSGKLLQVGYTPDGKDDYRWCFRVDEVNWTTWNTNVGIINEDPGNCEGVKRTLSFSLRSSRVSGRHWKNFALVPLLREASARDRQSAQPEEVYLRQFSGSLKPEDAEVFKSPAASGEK
Compound,Ki,other results
"COc1cc(NC(=O)NCc2cc(C(F)(F)F)nn2-c2cccc(C)c2)ccc1CNS(C)(=O)=O [Example B86, 1-[4-(Methanesulfonamido-methyl)-3-methoxy-phenyl]-3-[[2-(m-tolyl)-5-(trifluoromethyl)-2H-pyrazol-3-yl]-methyl]-urea]",93 nM,
1-[[5-tert-Butyl-2-(3-chlorophenyl)-2H-pyrazol-3-yl]-methyl]-3-[3-fluoro-4-(hydroxymethyl)-phenyl]-urea [Example A55],3 nM,
"NS(=O)(=O)NCc1ccc(NC(=O)NCc2cc(C3CC3)nn2-c2cccc(Cl)c2)cc1F [Example B61, 1-[[2-(3-Chlorophenyl)-5-cyclopropyl-2H-pyrazol-3-yl]-methyl]-3-[3-fluoro-4-[(sulfamoylamino)-methyl]-phenyl]-urea]",8 nM,
"CC(C)c1cccc(-n2nc(C(F)(F)F)cc2CNC(=O)Nc2ccc(CNS(C)(=O)=O)cc2)c1 [Example B83, 1-[[2-(3-isopropyl-phenyl)-5-(trifluoromethyl)-2H-pyrazol-3-yl]-methyl]-3-[4-(methanesulfonamido-methyl)-phenyl]-urea]",3 nM,
"CN(C)Cc1ccc(NC(=O)NCc2cc(C(F)(F)F)nn2-c2cccc(Cl)c2)cc1F [Example B38, 1-[[2-(3-Chlorophenyl)-5-(trifluoromethyl)-2H-pyrazol-3-yl]-methyl]-3-[4-(dimethylaminomethyl)-3-fluoro-phenyl]-urea]",,inhibition at 5 µM (@ 5 μM): 18%
"CC(C(=O)NCc1cc(C(C)(C)C)nn1-c1cccc(Cl)c1)c1ccc(CNS(N)(=O)=O)cc1 (centres unmarked) [Example B103, N-[[5-tert-Butyl-2-(3-chlorophenyl)-2H-pyrazol-3-yl]-methyl]-2-[4-[(sulfamoylamino)-methyl]-phenyl]-propionamide]",0.7 nM,
"CC(C(=O)NCc1cc(C(C)(C)C)nn1-c1ccc(F)c(Cl)c1)c1ccc(CO)c(F)c1 (centres unmarked) [Example A41, N-[[5-tert-Butyl-2-(3-chloro-4-fluoro-phenyl)-2H-pyrazol-3-yl]-methyl]-2-[3-fluoro-4-(hydroxymethyl)-phenyl]-propionamide]",,(f) Ki (human being) [nM] Cap: result in words (Tables 8-12): AG
"CS(=O)(=O)NCc1ccc(NC(=O)NCc2cc(C(F)(F)F)nn2-c2cccc(Cl)c2)cc1F [Example B52, 1-[[2-(3-Chlorophenyl)-5-(trifluoromethyl)-2H-pyrazol-3-yl]-methyl]-3-[3-fluoro-4-(methanesulfonamido-methyl)-phenyl]-urea]",9 nM,
"CC(C(=O)NCc1cc(C(C)(C)C)nn1-c1ccc(F)c(Cl)c1)c1ccc(CS(C)(=O)=O)c(F)c1 (centres unmarked) [Example D8, N-[[5-tert-Butyl-2-(3-chloro-4-fluoro-phenyl)-2H-pyrazol-3-yl]-methyl]-2-[3-fluoro-4-(methylsulfonyl-methyl)-phenyl]-propionamide]",48 nM,
"CC(C(=O)NCc1cc(C(C)(C)C)nn1-c1cccc(Cl)c1)c1ccc(C(=O)Nc2ccc(F)cc2)c(F)c1 (centres unmarked) [Example E44, 4-[1-[[5-tert-Butyl-2-(3-chlorophenyl)-2H-pyrazol-3-yl]-methyl-carbamoyl]-ethyl-]-2-fluoro-N-(4-fluorophenyl)-benzamide]",1 nM,
"CCS(=O)(=O)NCc1ccc(C(C)C(=O)NCc2cc(C(C)(C)C)nn2-c2cccc(Cl)c2)cc1F (centres unmarked) [Example B16, N-[[5-tert-Butyl-2-(3-chlorophenyl)-2H-pyrazol-3-yl]-methyl]-2-[4-[[(ethylsulfonyl)amino]-methyl]-3-fluoro-phenyl]-propionamide]",2 nM,
"CC(C(=O)NCc1cc(C(C)(C)C)nn1-c1ccc(F)c(F)c1)c1ccc(CNS(C)(=O)=O)c(F)c1 (centres unmarked) [Example B10, N-[[5-tert-Butyl-2-(3,4-difluoro-phenyl)-2H-pyrazol-3-yl]-methyl]-2-[3-fluoro-4-(methanesulfonamido-methyl)-phenyl]-propionamide]",6 nM,
"CC(C(=O)NCc1cc(C(F)(F)F)nn1-c1cccc(F)c1)c1ccc(CNS(C)(=O)=O)c(F)c1 (centres unmarked) [Example B7, 2-[3-Fluoro-4-(methanesulfonamido-methyl)-phenyl]-N-[[2-(3-fluorophenyl)-5-(trifluoromethyl)-2H-pyrazol-3-yl]-methyl]-propionamide]",7 nM,
"CC(C(=O)NCc1cc(C(F)(F)F)nn1-c1cccc(Cl)c1)c1ccc(CN(C)C)c(F)c1 (centres unmarked) [Example B65, N-[[2-(3-Chlorophenyl)-5-(trifluoromethyl)-2H-pyrazol-3-yl]-methyl]-2-[4-(dimethylaminomethyl)-3-fluoro-phenyl]-propionamide]",,inhibition at 5 µM (@ 5 μM): 36%
"CC(C(=O)NCc1cc(C(C)(C)C)nn1-c1cccc(Cl)c1)c1ccc(C(=O)N2CCOCC2)c(F)c1 (centres unmarked) [Example E17, N-[[5-tert-Butyl-2-(3-chlorophenyl)-2H-pyrazol-3-yl]-methyl]-2-[3-fluoro-4-(morpholine-4-carbonyl)-phenyl]-propionamide]",,inhibition at 5 µM (@ 5 μM): 42%
4-[[[5-tert-Butyl-2-(3-chlorophenyl)-2H-pyrazol-3-yl]-methyl-carbamoyl]amino]-2-chloro-benzoic acid [Example E55],,"(f) Ki (human being) [nM] Cap: inhibition (as a percentage) (@ 5 μM, Tables 8-12): 28% @ 5 μM"

Compound,Ki,other results
4-[[[5-tert-Butyl-2-(3-chlorophenyl)-2H-pyrazol-3-yl]-methyl-carbamoyl]-methyl]-N-(4-chlorophenyl)-benzamide [Example E30],3 nM,
"CC(C)(C)c1cc(CNC(=O)Nc2ccc(CNS(C)(=O)=O)c(F)c2)n(-c2ccc(F)c(Cl)c2)n1 [Example B51, 1-[[5-tert-Butyl-2-(3-chloro-4-fluoro-phenyl)-2H-pyrazol-3-yl]-methyl]-3-[3-fluoro-4-(methanesulfonamido-methyl)-phenyl]-urea]",15 nM,
"COc1cc(NC(=O)NCc2cc(C(F)(F)F)nn2-c2cccc(Cl)c2)ccc1O [Example A15, 1-[[2-(3-Chlorophenyl)-5-(trifluoromethyl)-2H-pyrazol-3-yl]-methyl]-3-(4-hydroxy-3-methoxy-phenyl)-urea]",,(f) Ki (human being) [nM] Cap: result in words (Tables 8-12): AG
"CC(C(=O)NCc1cc(C(F)(F)F)nn1-c1cccc(F)c1)c1ccc(CS(C)(=O)=O)c(F)c1 (centres unmarked) [Example D10, 2-[3-Fluoro-4-(methylsulfonyl-methyl)-phenyl]-N-[[2-(3-fluorophenyl)-5-(trifluoromethyl)-2H-pyrazol-3-yl]-methyl]-propionamide]",75 nM,
"CC(C(=O)NCc1cc(C(C)(C)C)nn1-c1cccc(Cl)c1)c1ccc(CNS(C)(=O)=O)c(Cl)c1 (centres unmarked) [Example B13, N-[[5-tert-Butyl-2-(3-chlorophenyl)-2H-pyrazol-3-yl]-methyl]-2-[3-chloro-4-(methanesulfonamido-methyl)-phenyl]-propionamide]",1 nM,
"CCC(=O)c1ccc(C(C)C(=O)NCc2cc(C(F)(F)F)nn2-c2cccc(F)c2)cc1F (centres unmarked) [Example E1, N-[[2-(3-Fluorophenyl)-5-(trifluoromethyl)-2H-pyrazol-3-yl]-methyl]-2-(3-fluoro-4-propanoyl-phenyl)-propionamide]",24 nM,
"CC(C(=O)NCc1cc(C(C)(C)C)nn1-c1ccc(F)c(Cl)c1)c1ccc(CNS(N)(=O)=O)c(F)c1 (centres unmarked) [Example B96, N-[[5-tert-Butyl-2-(3-chloro-4-fluoro-phenyl)-2H-pyrazol-3-yl]-methyl]-2-[3-fluoro-4-[(sulfamoylamino)-methyl]-phenyl]-propionamide]",0.9 nM,
"CC(C(=O)NCc1cc(C(C)(C)C)nn1-c1cccc(Cl)c1)c1ccc(CN(C)C)c(F)c1 (centres unmarked) [Example B64, N-[[5-tert-Butyl-2-(3-chlorophenyl)-2H-pyrazol-3-yl]-methyl]-2-[4-(dimethylaminomethyl)-3-fluoro-phenyl]-propionamide]",45 nM,
"CS(=O)(=O)NCc1ccc(NC(=O)NCc2cc(C(F)(F)F)nn2-c2cccc(F)c2)cc1F [Example B48, 1-[3-Fluoro-4-(methanesulfonamido-methyl)-phenyl]-3-[[2-(3-fluorophenyl)-5-(trifluoromethyl)-2H-pyrazol-3-yl]-methyl]-urea]",40 nM,
"CS(=O)(=O)NCc1ccc(CC(=O)NCc2cc(C(F)(F)F)nn2-c2cccc(Cl)c2)cc1F [Example B23, N-[[2-(3-Chlorophenyl)-5-(trifluoromethyl)-2H-pyrazol-3-yl]-methyl]-2-[3-fluoro-4-(methanesulfonamido-methyl)-phenyl]-acetamide]",13 nM,
"COc1cc(NC(=O)NCc2cc(C(C)(C)C)nn2-c2cccc(Cl)c2)ccc1CNS(C)(=O)=O [Example B11, 1-[[5-tert-Butyl-2-(3-chlorophenyl)-2H-pyrazol-3-yl]-methyl]-3-[4-(methanesulfonamido-methyl)-3-methoxy-phenyl]-urea]",9 nM,
"CS(=O)(=O)NCc1ccc(NC(=O)NCc2cc(C(F)(F)F)nn2-c2ccc(F)c(F)c2)cc1F [Example B49, 1-[[2-(3,4-Difluoro-phenyl)-5-(trifluoromethyl)-2H-pyrazol-3-yl]-methyl]-3-[3-fluoro-4-(methanesulfonamido-methyl)-phenyl]-urea]",11 nM,
"CS(=O)(=O)NCc1ccc(NC(=O)NCc2cc(C(F)(F)F)nn2-c2cccc(F)c2)cc1 [Example B44, 1-[[2-(3-Fluorophenyl)-5-(trifluoromethyl)-2H-pyrazol-3-yl]-methyl]-3-[4-(methanesulfonamido-methyl)-phenyl]-urea]",44 nM,
"O=C(NCc1cc(C(F)(F)F)nn1-c1cccc(F)c1)Nc1ccc(N2CC(O)C2)c(F)c1 [Example C9, 1-[3-Fluoro-4-(3-hydroxy-azetidin-1-yl)-phenyl]-3-[[2-(3-fluorophenyl)-5-(trifluoromethyl)-2H-pyrazol-3-yl]-methyl]-urea]",,inhibition at 5 µM (@ 5 μM): 50%
4-[[[2-(3-Chlorophenyl)-5-(trifluoromethyl)-2H-pyrazol-3-yl]-methyl-carbamoyl]-methyl]-N-phenyl-benzamide [Example E26],25 nM,
"CC(C)c1cccc(-n2nc(C(F)(F)F)cc2CNC(=O)C(C)c2ccc(CNS(N)(=O)=O)c(F)c2)c1 (centres unmarked) [Example B94, 2-[3-Fluoro-4-[(sulfamoylamino)-methyl]-phenyl]-N-[[2-(3-isopropyl-phenyl)-5-(trifluoromethyl)-2H-pyrazol-3-yl]-methyl]-propionamide]",0.9 nM,
